The text below walks through data of PMC2702710 (The Journal of organic chemistry, 2009).

Experiment [1] concerns the target T1, Icmt (Homo sapiens, UniProt O60725). Briefly: Vapor diffusion assay. Format: biochemical. The conditions noted are these: for IC50: read-out: Human Icmt IC50, 25 μM AFC, 20 μM 14C-SAM, 30 min at 30°C.
Experiment [2] concerns the target T1, Icmt. Briefly: Icmt scintillation proximity assay. It counts as biochemical. The note with it: initial SPA screen, 50 μM. For orientation: Scintillation proximity formats need no separation of bound from free tracer.
Experiment [3] deals with T1, Icmt. Briefly: Preliminary screen for Icmt substrate activity. Format: biochemical.
The next experiment concerns cancer cells. The note with it: cited from earlier work.

T1 sequence (O60725 whole entry, the tested form may be a part): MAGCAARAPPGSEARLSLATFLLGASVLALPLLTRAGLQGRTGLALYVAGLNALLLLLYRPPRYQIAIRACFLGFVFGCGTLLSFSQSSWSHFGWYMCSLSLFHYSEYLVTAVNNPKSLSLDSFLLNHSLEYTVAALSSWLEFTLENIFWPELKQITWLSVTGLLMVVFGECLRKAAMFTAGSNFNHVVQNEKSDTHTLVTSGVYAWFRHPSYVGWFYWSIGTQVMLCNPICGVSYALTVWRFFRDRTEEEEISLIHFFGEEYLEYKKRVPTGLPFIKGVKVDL

Usually IC50 stands for the midpoint of a concentration-inhibition curve. As to `CC(C)=CCC/C(C)=C/CC/C(C)=C/CSC[C@H](NC(=O)CC12CC3CC(CC(C3)C1)C2)C(=O)O` [4a, N-1-adamantylacetylcarbonyl-L-cysteine[S-(2E,6E)-3,7,11-trimethyldodeca-2,6,10-trienyl]-OH], the IC50 on Icmt [1] (VDA) was determined as 18.8 µM.
Turning to `CC(C)=CCC/C(C)=C/CC/C(C)=C/CSC[C@H](NC(=O)C12CC3CC(CC1C3)C2)C(=O)O` [4b, N-3-noradamantanecarbonyl-L-cysteine[S-(2E,6E)-3,7,11-trimethyldodeca-2,6,10-trienyl]-OH], at Icmt [1] (VDA), the IC50 is 16.7 µM.
Regarding `CC(C)=CCC/C(C)=C/CC/C(C)=C/CSC[C@H](NC(=O)C[C@H]1C[C@H]2CCC1C2)C(=O)O` [4c, N-2-((2R,4S)-bicyclo[2.2.1]heptan-2-yl)acetyl-L-cysteine[S-(2E,6E)-3,7,11-trimethyldodeca-2,6,10-trienyl]-OH], the “activity in the SPA” value on Icmt [2] was “inactive”.
As for `CCCCCC12CCC(C(=O)N[C@@H](CSC/C=C(\C)CC/C=C(\C)CCC=C(C)C)C(=O)O)(CC1)CC2` [4d, N-4-pentylbicyclo[2.2.2]octane-1-carbonyl-L-cysteine[S-(2E,6E)-3,7,11-trimethyldodeca-2,6,10-trienyl]-OH], the IC50 on Icmt [1] (VDA) was found to be 16.7 µM.
In the case of `CC(C)=CCC/C(C)=C/CC/C(C)=C/CSC[C@H](NC(=O)[C@]12CCC(CC1=O)C2(C)C)C(=O)O` [4e, N-(1S)-7,7-dimethyl-2-oxobicyclo[2.2.1]heptane-1-carbonyl-L-cysteine[S-(2E,6E)-3,7,11-trimethyldodeca-2,6,10-trienyl]-OH], at Icmt [1] (VDA), the IC50 came to 15.6 µM.
Still for that read-out and setting: the result for `CC(C)=CCC/C(C)=C/CC/C(C)=C/CSC[C@H](NC(=O)c1ccccc1-c1ccccc1)C(=O)O` [4f, N-2-phenylbenzoyl-L-cysteine[S-(2E,6E)-3,7,11-trimethyldodeca-2,6,10-trienyl]-OH] reads 12.1 µM.
On to `CC(C)=CCC/C(C)=C/CC/C(C)=C/CSC[C@H](NC(=O)Cc1cccc2ccccc12)C(=O)O` [4g, N-1-napthylacetylcarbonyl-L-cysteine[S-(2E,6E)-3,7,11-trimethyldodeca-2,6,10-trienyl]-OH], for which the “activity in the SPA” value at Icmt [2] was “inactive”.
As to `CC(C)=CCC/C(C)=C/CC/C(C)=C/CSC[C@H](NC(=O)CO[C@@H]1C[C@H](C)CC[C@H]1C(C)C)C(=O)O` [4h, N-2-((1R,2S,5R)-2-isopropyl-5-methylcyclohexyloxy)acetyl-L-cysteine[S-(2E,6E)-3,7,11-trimethyldodeca-2,6,10-trienyl]-OH], the IC50 on Icmt [1] (VDA) came to 22.9 µM.
On to `CCCCCCCCC(=O)N[C@@H](CSC/C=C(\C)CC/C=C(\C)CCC=C(C)C)C(=O)O` [4i, N-octylcarbonyl-L-cysteine[S-(2E,6E)-3,7,11-trimethyldodeca-2,6,10-trienyl]-OH], for which, at Icmt [2], the “activity in the SPA” value was “inactive”.
Turning to `CC(C)=CCC/C(C)=C/CC/C(C)=C/CSC[C@H](NC(=O)c1ccccc1Oc1ccccc1)C(=O)O` [5e, N-(2-oxyphenyl)benzoyl-L-cysteine[S-(2E,6E)-3,7,11-trimethyldodeca-2,6,10-trienyl]-OH], the “inhibition of Icmt (methylation of AFC)” value on Icmt [1] (VDA, at a concentration of 10 μM) is on record as ~80%. At Icmt [1] (VDA), the IC50 amounted to 4.3 µM.
On to `CC(C)=CCC/C(C)=C/CC/C(C)=C/CSC[C@H](NC(=O)CN1C(=O)OC[C@@H]1c1ccccc1)C(=O)O` [5f, N-2-((S)-4-phenyl-2-oxo-oxazolidin-3-yl)acetyl-L-cysteine[S-(2E,6E)-3,7,11-trimethyldodeca-2,6,10-trienyl]-OH], for which the Icmt substrate activity entry at Icmt [3] was “more efficient Icmt substrates than the prototypical N-acetylfarnesylcysteine”.
In the case of `CC(C)=CCC/C(C)=C/CC/C(C)=C/CSC[C@H](NC(=O)CCS(=O)(=O)c1ccccc1)C(=O)O` [5l, N-3-(phenylsulfonyl)propanoyl-L-cysteine[S-(2E,6E)-3,7,11-trimethyldodeca-2,6,10-trienyl]-OH], the Icmt substrate activity entry at Icmt [3] is listed as “more efficient Icmt substrates than the prototypical N-acetylfarnesylcysteine”.
Same read-out and setting: to `CC(C)=CCC(=CCSC[C@H](NC(=O)c1ccccc1Oc1ccccc1)C(=O)O)CCc1ccc(-c2ccccc2)cc1` [compound 7, N-2-Phenoxybenzoyl-S-3-(3-methyl-but-2-enyl)-5-(4-biphenyl)pent-2-enyl-L-cysteine] belongs “no substrate activity”.
`CCCCCCCCn1cc(CC(N)=O)c2cc(-c3cccc(C)c3)ccc21` [cysmethynil]: in the experiment on cancer cells, the “activity against cancer cells” value is “exhibits activity against cancer cells”.
As to “N-2-(aminophenyl)benzoyl-L-cysteine[S-(2E,6E)-3,7,11-trimethyldodeca-2,6,10-trienyl]-OH [5h]”, the “Icmt inhibitory potency (in words)” value at Icmt [1] is “potent analog”.
